Source: ChEMBL document CHEMBL6103592, “Discovery of novel thiazole-pleuromutilin derivatives with potent antibacterial activity” (Eur J Med Chem, 2025)
≈ marks a conversion by molar mass, not a printed value.

Legend:
Format in all cases: functional
Staphylococcus aureus [1] = experiment: Antibacterial activity against methicillin-resistant Staphylococcus aureus ATCC 43300 assessed as inhibition of visible bacterial growth incubated for 24 hrs by CLSI based broth microdilution method
Staphylococcus aureus [2] = experiment: Antibacterial activity against Staphylococcus aureus ATCC 25923 assessed as inhibition of visible bacterial growth incubated for 24 hrs by CLSI based broth microdilution method
Enterococcus faecalis = experiment: Antibacterial activity against Enterococcus faecalis assessed as inhibition of visible bacterial growth incubated for 24 hrs by CLSI based broth microdilution method
Escherichia coli = experiment: Antibacterial activity against Escherichia coli ATCC 25922 assessed as inhibition of visible bacterial growth incubated for 24 hrs by CLSI based broth microdilution method
Streptococcus agalactiae = experiment: Antibacterial activity against Streptococcus agalactiae assessed as inhibition of visible bacterial growth incubated for 24 hrs by CLSI based broth microdilution method
Mycoplasma = experiment: Antibacterial activity against Mycoplasma F3 assessed as inhibition of visible bacterial growth incubated for 24 hrs by CLSI based broth microdilution method

## C=C[C@]1(C)C[C@@H](OC(=O)CSc2nc(OC(=O)C3CCC3)cs2)[C@]2(C)[C@H](C)CC[C@]3(CCC(=O)[C@H]32)[C@@H](C)[C@@H]1O
Staphylococcus aureus [1]
  MIC: 0.5 µg/mL (≈ 0.868 µM)
Staphylococcus aureus [2]
  MIC: 1 µg/mL (≈ 1.74 µM)
Enterococcus faecalis
  MIC: > 32 µg/mL
Escherichia coli
  MIC: > 32 µg/mL
Streptococcus agalactiae
  MIC: 0.063 µg/mL (≈ 0.109 µM)
Mycoplasma
  MIC: 0.5 µg/mL (≈ 0.868 µM)

## C=C[C@]1(C)C[C@@H](OC(=O)CSc2nc(OC(=O)c3ccccc3F)cs2)[C@]2(C)[C@H](C)CC[C@]3(CCC(=O)[C@H]32)[C@@H](C)[C@@H]1O
Staphylococcus aureus [1]
  MIC: 0.5 µg/mL (≈ 0.812 µM)
Staphylococcus aureus [2]
  MIC: 0.5 µg/mL (≈ 0.812 µM)
Enterococcus faecalis
  MIC: > 32 µg/mL
Escherichia coli
  MIC: > 32 µg/mL
Streptococcus agalactiae
  MIC: 0.125 µg/mL (≈ 0.203 µM)
Mycoplasma
  MIC: 0.25 µg/mL (≈ 0.406 µM)

## C=C[C@]1(C)C[C@@H](OC(=O)CSc2nc(OC(=O)CCC)cs2)[C@]2(C)[C@H](C)CC[C@]3(CCC(=O)[C@H]32)[C@@H](C)[C@@H]1O
Staphylococcus aureus [1]
  MIC: 1 µg/mL (≈ 1.77 µM)
Staphylococcus aureus [2]
  MIC: 1 µg/mL (≈ 1.77 µM)
Enterococcus faecalis
  MIC: > 32 µg/mL
Escherichia coli
  MIC: > 32 µg/mL
Streptococcus agalactiae
  MIC: 0.125 µg/mL (≈ 0.222 µM)
Mycoplasma
  MIC: 0.25 µg/mL (≈ 0.443 µM)

## C=C[C@]1(C)C[C@@H](OC(=O)CSc2nc(OC(=O)c3ccccc3Cl)cs2)[C@]2(C)[C@H](C)CC[C@]3(CCC(=O)[C@H]32)[C@@H](C)[C@@H]1O
Staphylococcus aureus [1]
  MIC: 0.5 µg/mL (≈ 0.791 µM)
Staphylococcus aureus [2]
  MIC: 1 µg/mL (≈ 1.58 µM)
Enterococcus faecalis
  MIC: > 32 µg/mL
Escherichia coli
  MIC: > 32 µg/mL
Streptococcus agalactiae
  MIC: 0.125 µg/mL (≈ 0.198 µM)
Mycoplasma
  MIC: 0.25 µg/mL (≈ 0.395 µM)

## C=C[C@]1(C)C[C@@H](OC(=O)CSc2nc(OC(=O)c3ccc(C)cc3)cs2)[C@]2(C)[C@H](C)CC[C@]3(CCC(=O)[C@H]32)[C@@H](C)[C@@H]1O
Staphylococcus aureus [1]
  MIC: 1 µg/mL (≈ 1.63 µM)
Staphylococcus aureus [2]
  MIC: 0.25 µg/mL (≈ 0.409 µM)
Enterococcus faecalis
  MIC: > 32 µg/mL
Escherichia coli
  MIC: > 32 µg/mL
Streptococcus agalactiae
  MIC: 0.063 µg/mL (≈ 0.103 µM)
Mycoplasma
  MIC: 0.5 µg/mL (≈ 0.817 µM)

## C=C[C@]1(C)C[C@@H](OC(=O)CSc2nc(OC(=O)C3CCCCC3)cs2)[C@]2(C)[C@H](C)CC[C@]3(CCC(=O)[C@H]32)[C@@H](C)[C@@H]1O
Staphylococcus aureus [1]
  MIC: 1 µg/mL (≈ 1.66 µM)
Staphylococcus aureus [2]
  MIC: 1 µg/mL (≈ 1.66 µM)
Enterococcus faecalis
  MIC: > 32 µg/mL
Escherichia coli
  MIC: > 32 µg/mL
Streptococcus agalactiae
  MIC: 0.125 µg/mL (≈ 0.207 µM)
Mycoplasma
  MIC: 0.5 µg/mL (≈ 0.828 µM)

## C=C[C@]1(C)C[C@@H](OC(=O)CSc2nc(OC(=O)C3CCCC3)cs2)[C@]2(C)[C@H](C)CC[C@]3(CCC(=O)[C@H]32)[C@@H](C)[C@@H]1O
Staphylococcus aureus [1]
  MIC: 1 µg/mL (≈ 1.7 µM)
Staphylococcus aureus [2]
  MIC: 2 µg/mL (≈ 3.39 µM)
Enterococcus faecalis
  MIC: > 32 µg/mL
Escherichia coli
  MIC: > 32 µg/mL
Streptococcus agalactiae
  MIC: 0.25 µg/mL (≈ 0.424 µM)
Mycoplasma
  MIC: 0.25 µg/mL (≈ 0.424 µM)

## C=C[C@]1(C)C[C@@H](OC(=O)CSc2nc(OC(=O)c3cccc(F)c3)cs2)[C@]2(C)[C@H](C)CC[C@]3(CCC(=O)[C@H]32)[C@@H](C)[C@@H]1O
Staphylococcus aureus [1]
  MIC: 0.5 µg/mL (≈ 0.812 µM)
Staphylococcus aureus [2]
  MIC: 2 µg/mL (≈ 3.25 µM)
Enterococcus faecalis
  MIC: > 32 µg/mL
Escherichia coli
  MIC: > 32 µg/mL
Streptococcus agalactiae
  MIC: 0.125 µg/mL (≈ 0.203 µM)
Mycoplasma
  MIC: 0.5 µg/mL (≈ 0.812 µM)

## C=C[C@]1(C)C[C@@H](OC(=O)CSc2nc(OC(=O)c3cccc(OC)c3)cs2)[C@]2(C)[C@H](C)CC[C@]3(CCC(=O)[C@H]32)[C@@H](C)[C@@H]1O
Staphylococcus aureus [1]
  MIC: 1 µg/mL (≈ 1.59 µM)
Staphylococcus aureus [2]
  MIC: 1 µg/mL (≈ 1.59 µM)
Enterococcus faecalis
  MIC: > 32 µg/mL
Escherichia coli
  MIC: > 32 µg/mL
Streptococcus agalactiae
  MIC: 0.063 µg/mL (≈ 0.1 µM)
Mycoplasma
  MIC: 0.25 µg/mL (≈ 0.398 µM)

## C=C[C@]1(C)C[C@@H](OC(=O)CSc2nc(OC(=O)c3ccc(Cl)cc3)cs2)[C@]2(C)[C@H](C)CC[C@]3(CCC(=O)[C@H]32)[C@@H](C)[C@@H]1O
Staphylococcus aureus [1]
  MIC: 0.5 µg/mL (≈ 0.791 µM)
Staphylococcus aureus [2]
  MIC: 0.5 µg/mL (≈ 0.791 µM)
Enterococcus faecalis
  MIC: > 32 µg/mL
Escherichia coli
  MIC: > 32 µg/mL
Streptococcus agalactiae
  MIC: 0.063 µg/mL (≈ 0.0996 µM)
Mycoplasma
  MIC: 0.25 µg/mL (≈ 0.395 µM)

## C=C[C@]1(C)C[C@@H](OC(=O)CSc2nc(OC(=O)c3ccc(Cl)cc3Cl)cs2)[C@]2(C)[C@H](C)CC[C@]3(CCC(=O)[C@H]32)[C@@H](C)[C@@H]1O
Staphylococcus aureus [1]
  MIC: 0.5 µg/mL (≈ 0.75 µM)
Staphylococcus aureus [2]
  MIC: 2 µg/mL (≈ 3 µM)
Enterococcus faecalis
  MIC: > 32 µg/mL
Escherichia coli
  MIC: > 32 µg/mL
Streptococcus agalactiae
  MIC: 0.063 µg/mL (≈ 0.0945 µM)
Mycoplasma
  MIC: 0.5 µg/mL (≈ 0.75 µM)

## C=C[C@]1(C)C[C@@H](OC(=O)CSc2nc(OC(=O)c3c(Cl)cc(Cl)cc3Cl)cs2)[C@]2(C)[C@H](C)CC[C@]3(CCC(=O)[C@H]32)[C@@H](C)[C@@H]1O
Staphylococcus aureus [1]
  MIC: 16 µg/mL (≈ 22.8 µM)
Staphylococcus aureus [2]
  MIC: 16 µg/mL (≈ 22.8 µM)
Enterococcus faecalis
  MIC: > 32 µg/mL
Escherichia coli
  MIC: > 32 µg/mL
Streptococcus agalactiae
  MIC: 0.5 µg/mL (≈ 0.713 µM)
Mycoplasma
  MIC: 1 µg/mL (≈ 1.43 µM)

## C=C[C@]1(C)C[C@@H](OC(=O)CSc2nc(OC(=O)c3ccccc3Br)cs2)[C@]2(C)[C@H](C)CC[C@]3(CCC(=O)[C@H]32)[C@@H](C)[C@@H]1O
Staphylococcus aureus [1]
  MIC: 0.5 µg/mL (≈ 0.739 µM)
Staphylococcus aureus [2]
  MIC: 2 µg/mL (≈ 2.96 µM)
Enterococcus faecalis
  MIC: > 32 µg/mL
Escherichia coli
  MIC: > 32 µg/mL
Streptococcus agalactiae
  MIC: 0.063 µg/mL (≈ 0.0931 µM)
Mycoplasma
  MIC: 0.5 µg/mL (≈ 0.739 µM)
